Measurements published in article PMC3928314, “Identification and Characterization of Sebaceous Gland Atrophy-Sparing DGAT1 Inhibitors” (PLoS ONE, 2014).
Values joined by “and” are separate entries in the source; they are usually repeats but may differ in a detail not shown here. Equal values may be shown once. “Also recorded” adds a separate entry of the source. Read-outs that look alike come from different tables or passages of the source.

What was measured:
[1] = Unbound fraction (Fu) in plasma by equilibrium dialysis; assay type: in vitro ADME; details: pH 7.4, mouse plasma, equilibrium dialysis 4 hr 37°C
Method: Plasma protein binding was determined by equilibrium dialysis with an incubation period of 4 hr at 37°C. The dialysis membrane (10-12K MWCO, HTDialysis, LLC) was hydrated and the dialysis apparatus (HTDialysis, LLC) assembled according to the manufacturer's directions. A 150 µL aliquot of mouse plasma containing compound (5 µM) was added to one side of the dialysis membrane. A 150 µL aliquot of phosphate buffered saline (pH 7.4) was added to the opposite side. The plate was then sealed and placed in a shaking incubator set to maintain a temperature of 37°C and constant shaking rate of 60 rpm for 4 hr. At the end of the incubation period, 50 µL aliquots of plasma and buffer were removed and analyzed by LC-MS/MS. Percent unbound was determined as the amount of compound in buffer (post incubation) divided by amount of compound in plasma (post incubation) x100.

[2] = Measured logD by high-throughput HPLC; assay type: physicochemical; details: reversed-phase HPLC, Poroshell 120 EC-C18 column; HT HPLC, pH 7.0; read-out: mlogD (measured logD)
Method: LogD was measured by high-throughput (HT) HPLC at pH 7.0. The chromatographic system consisted of an Agilent 1200 HPLC system composed of a G1379B degasser, G1312B binary pump, G1367C well-plate autosampler, G1316B thermostatted column compartment, G1315C diode-array UV-vis detector, and ChemStation software, all from Agilent Technologies, USA. The separations were carried out on a Poroshell 120 EC-C18, 30 mm×3.0 mm I.D., 2.7 µm, (Agilent Technologies, USA). The mobile phase consisted of phosphate buffered saline at pH 7 (mobile phase A) and acetonitrile (mobile phase B). The column oven temperature was set to 30°C. The HPLC analysis began with an isocratic step of 0.2 minutes at 5% B at 1.5 ml/min, followed by a gradient from 5% to 98% B in 1.0 minute at 1.5 ml/min. A second isocratic step of 0.2 minutes at 98% B with a changing flow rate from 1.5 to 2.0 ml/min was then followed by a gradient from 98 to 5% B in 0.1 minutes with the flow rate changing from 2.0 to 1.5 ml/min. The equilibration time between injections is 0.2 minutes at 5% B. The injection volume is 5 µL and the spectrophotometric detection was set to 215, 238 and 254 nm.
A 10 mM DMSO stock solution of compound was delivered for analysis. A 100 µM standard solution was generated by diluting 10 µL of the 10 mM stock solution with 990 µL of diluent (10% DMSO/10% MeCN/80% MeOH, v/v/v). The chromatographic system was calibrated with a set of standards with published shake-flask logD values. Linear regression was used to determine the calibration line relating the retention time to logD for the calibration standards. This line was then used to determine the HT HPLC logD7.0 value of compound from the measured retention time by the HPLC/DAD analysis of the 100 µM standard solution.

[3] = Skin compound concentration after 14 days oral dosing; assay type: in vivo, mouse; details: DIO mice; for Skin (skin concentration): oral 30 mg/kg or dose indicated (Cpd1 3 mg/kg), 14 days, trough, BLQ = below detection; for Kp: male, C57BL/6, mouse, skin/plasma, 14 days oral dosing, read-out: Skin/Plasma Ratio (skin to plasma concentration ratio)
Method: (§1) Experiments were performed in male diet induced obese C57BL/6 mice (Taconic Farms, Germantown, NY) that were fed high-fat diet (D12492: 60% kcal from fat; Research Diets) in a 12 hr light/12 hr dark cycle. Animal protocols used in these studies were approved by the Merck Research Laboratories Institutional Animal Care and Use Committee (Rahway, NJ). Mice were acclimated to nonspecific stress for 7 days before the onset of the chronic dosing studies where they were dosed orally with vehicle (0.5% methylcellulose) or compounds at 30 mg/kg, or at doses indicated, for 14 days.
The skin tissue samples from mice were weighted and placed in 48-well plates (or tubes). […] An aliquot of 100 µL homogenized blank skin tissue samples were transferred to 96-well plates designated for standard curve and QCs. […] An aliquot of 100 µL dosed skin tissue homogenates were transferred to the 96-well plate and a 25 µL aliquot of acetonitrile:water 1∶1 was added into each well containing dosed tissue samples to make the volumes of all samples, stds, and QCs equal. Protein precipitation was used for sample extraction by the addition of 500 µL of acetonitrile crash solution, containing IS. Internal standard used was Alprazolam (Sigma Aldrich) at 100 µM in the crash solution. Samples were vortexed for 30 seconds and then centrifuged at 4000 rpm for 5 min. The supernatant was transferred to a separate plate.
A Thermo Scientific-Cohesive LX-2 system consisting of a CTC Analytics autosampler, Flux Instruments AG pumps, and a valve module, controlled by Aria software was used. A Sciex API-4000 mass spectrometer (Toronto, Canada) was the detector using Analyst 1.4.2 software. The aqueous mobile phase (A) was water with 0.1% formic acid and the organic mobile phase (B) was acetonitrile with 0.1% formic acid. A gradient chromatographic profile was used. […] Then over 90 seconds, the chromatic conditions were ramped to 5% A and 95% B. This was held for 25 seconds when the conditions were changed back to original 95% A and 5% B and held for 50 seconds. […] A turbo ionspray interface was used in positive ion mode for detection of analytes. Multiple reaction monitoring (MRM) was used to measure the analyte response. The peak area ratio of analyte to internal standard for nominal concentrations was used to make a linear regression line with a 1/x2 weighting factor. The line's equation was used to determine the concentration in the unknown samples.

[4] = test system: male diet induced obese C57BL/6 mice; test: Skin histology, sebaceous gland atrophy in DIO mice; assay type: in vivo, mouse; details: for Sebaceous gland atrophy in skin, in words (skin-positive / skin-negative): 14 days of treatment; for Sebaceous gland size (area), Geometric Mean: dorsal skin biopsies, Cpd1 3 mg/kg, Cpd2 and Cpd3 30 mg/kg, n 10; for Sebaceous gland size (area), Geometric Mean / Scoring (histological adverse effect score, sebaceous gland atrophy): 14 days; for Scoring (histological adverse effect score, sebaceous gland atrophy): oral 30 mg/kg or dose indicated (Cpd1 3 mg/kg), dorsal skin
Method: as §1
Skin samples from DIO mice treated with DGAT1 inhibitors for 14 days were collected from the dorsal and/or ventral surface and immediately fixed in 10% buffered formalin for 24 hr at room temperature and embedded in paraffin. Paraffin specimens were sectioned at 5 µm and stained with hematoxylin and eosin, and were evaluated blindly with light microscopy. […] One slide/location with at least 50 sebaceous glands was used for scoring purposes. Digital images were captured using a 20× objective and the ScanScope XT slide scanner system (Aperio Technologies, Vista, CA) and managed using Spectrum (Aperio). The size of the sebaceous glands were measured using ImageScope of Aperio system by the method previously described.

[5] = Plasma compound concentration after 14 days oral dosing; assay type: in vivo, mouse; details: DIO mice, oral 30 mg/kg or dose indicated (Cpd1 3 mg/kg), trough
Method: as §1
Concentrations of compounds in plasma were determined by LC-MS/MS following protein precipitation. To 100 µL of plasma sample, 20 µL of an acetonitrile solution of the internal standard (2,500 ng/ml), was added. This step was followed by protein precipitation with 300 µL of acetonitrile. Samples expected to contain analyte concentrations exceeding the upper limits of the calibration curves were diluted with control plasma. Sample mixtures were vortex-mixed for 15 minutes. After spinning in a centrifuge for 15 minutes at 1,000× g (at 10°C), the supernatants were transferred by a Tomtec Quadra 96 Model 320 (Hamden, CT) to Empore 96 filter plates (Fisher Scientific, Springfield, NJ), and the resulting filtrates collected. These filtrates were dried at 25°C under a stream of nitrogen gas, on a Zymark TurboVap 96 (Hopkinton, MA). The residues were reconstituted with 100 µL of a 8∶2, v/v, mixture of mobile phases A (20 mM aqueous ammonium acetate containing 0.01% formic acid), and B (80∶20, v/v, acetonitrile:methanol), vortex-mixed, spun in a centrifuge at 1,000× g (at 10°C), then analyzed by LC-MS/MS.
The LC-MS/MS system comprised of a Leap Technologies HTS-PAL autosampler (Carrboro, North Carolina), two Perkin Elmer Series 200 Micro Pumps (Norwalk, CT), an in-line pre-column filter, a Type W 6-port Valco switching valve (Vici, Houston, TX), and a Sciex API 365 mass spectrometer (Toronto, Canada). Chromatographic separation of the analytes was achieved by RP-HPLC.
Data were acquired and processed by Sciex Analyst version 1.1 software. Peak area ratios of analyte to internal standard were plotted as a function of the nominal concentrations of the analyte. A line of best fit was generated from the curve points by linear regression with a weighting factor of 1/x2. The equation of this line was then used to calculate the plasma […] in samples.

rats = test: Longer exposure in rats, skin adverse effects; assay type: in vivo, rat; details: up to 300 mg/kg for 4 weeks, data not shown
mDGAT1 = molecular target: T1, mDGAT1 (Mus musculus, UniProt Q9Z2A7); test: DGAT1 enzyme assay; assay type: biochemical; details: in vitro potency
T1 construct: made in house; host or cells: Pichia (membrane preparations)
T1 sequence (Q9Z2A7 1-498): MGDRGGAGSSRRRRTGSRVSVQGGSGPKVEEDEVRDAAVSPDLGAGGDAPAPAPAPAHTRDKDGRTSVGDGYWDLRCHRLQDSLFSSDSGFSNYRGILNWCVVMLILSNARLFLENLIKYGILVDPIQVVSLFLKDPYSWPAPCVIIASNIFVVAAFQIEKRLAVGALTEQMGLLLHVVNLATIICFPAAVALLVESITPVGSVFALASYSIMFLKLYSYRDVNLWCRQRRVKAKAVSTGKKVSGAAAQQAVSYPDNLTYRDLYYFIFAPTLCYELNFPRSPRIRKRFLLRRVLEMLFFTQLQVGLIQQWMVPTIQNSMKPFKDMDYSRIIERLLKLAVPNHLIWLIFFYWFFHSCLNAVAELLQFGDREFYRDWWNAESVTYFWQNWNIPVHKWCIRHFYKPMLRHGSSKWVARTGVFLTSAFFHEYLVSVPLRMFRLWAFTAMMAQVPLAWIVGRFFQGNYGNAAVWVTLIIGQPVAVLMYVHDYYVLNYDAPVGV

Structure (SMILES): CC(C)(C)OC(=O)NC1(C(=O)N[C@@H]2CC(=O)c3ccccc3N(Cc3cc(C(F)(F)F)cc(C(F)(F)F)c3)C2=O)CC1 [Cpd2]
- fraction unbound at 4 h, 5 µM [1]: 0.01
- chromatographic logD [2]: 4.04
- Skin (skin concentration) [3]: 2.16 µM and 1.94 µM and 2.25 µM
- Kp ([3]; po): 17.5
- Sebaceous gland atrophy in skin, in words (skin-positive / skin-negative) [4]: induce either “minimal to mild” or “moderate to marked” skin sebaceous gland atrophy; also recorded: Skin-Positive
- Sebaceous gland size (area), Geometric Mean [4]: 880
- Scoring (histological adverse effect score, sebaceous gland atrophy) [4]: moderate to marked
- Plasma (plasma concentration) [5]: 0.124 µM and 0.106 µM and 0.163 µM

Structure (SMILES): Nc1ncnc2c1C(=O)N(c1ccc([C@H]3CC[C@H](CC(=O)O)CC3)cc1)CCO2 [Cpd1]
- chromatographic logD [2]: 0.35
- Skin (skin concentration) [3]: 0.0621 µM
- Kp [3]: 0.32
- Sebaceous gland atrophy in skin, in words (skin-positive / skin-negative) [4]: lack of skin AEs; also recorded: appeared normal; also recorded: Skin-Negative
- Sebaceous gland size (area), Geometric Mean [4]: 1805
- Scoring (histological adverse effect score, sebaceous gland atrophy) [4]: not remarkable
- Adverse effects in skin (rats): no adverse effects in skin
- Plasma (plasma concentration) [5]: 0.194 µM

Structure (SMILES): CC(C)(O)C[C@H]1CC[C@H](c2ccc(N3CCOc4ncnc(N)c4C3=O)cc2)CC1 [Cpd22]
- fraction unbound at 4 h, 5 µM [1]: 0.112
- chromatographic logD [2]: 2.15
- Skin (skin concentration) [3]: BLQ
- Sebaceous gland atrophy in skin, in words (skin-positive / skin-negative) [4]: induce either “minimal to mild” or “moderate to marked” skin sebaceous gland atrophy
- Scoring (histological adverse effect score, sebaceous gland atrophy) [4]: moderate to marked
- Plasma (plasma concentration) [5]: 51.4 µM

Structure (SMILES): O=C(Nc1ccc([C@H]2CC[C@H](C(=O)O)CC2)cc1F)c1nnc(Nc2ccc(F)c(F)c2)o1 [Cpd3]
- fraction unbound at 4 h, 5 µM [1]: 0.063
- chromatographic logD [2]: 1.73
- Skin (skin concentration) [3]: 0.135 µM
- Kp [3]: 0.098
- Sebaceous gland atrophy in skin, in words (skin-positive / skin-negative) [4]: induce either “minimal to mild” or “moderate to marked” skin sebaceous gland atrophy
- Sebaceous gland size (area), Geometric Mean [4]: 1562
- Scoring (histological adverse effect score, sebaceous gland atrophy) [4]: minimal to mild
- IC50 (mDGAT1): 0.011 µM
- IC50 (mDGAT1; same values in µM): 0.011 µM
- Plasma (plasma concentration) [5]: 1.38 µM
